Experimental data: patent US20250186397A1, “COMPOUNDS FOR THE USE IN THE TREATMENT OF MOOD DISORDERS” (Kanna Health Ltd, priority 2022, published 2025)
Where two headings read alike, the source gives them in different places.

Assays:
[1] = target: human recombinant PDE-4D2 (Homo sapiens, UniProt Q08499); assay: PDE4-D2 assay (SPA); format: biochemical
Experimental: (§1) Test compounds (conc range), reference compound or vehicle control were added to assay buffer containing (in mM); Tris/HCl, pH 7.4 (40), MgCl2 (8) and EGTA/NaOH (1.7), containing 450 nM cAMP (450 nM) and 0.25 μCi (PDE-4B1) or 0.0125 μCi (PDE-4D2) [^3H] CAMP. 20 mins after addition of human recombinant PDE-4B1 (1.2 IEU) or PDE-4D2 (1.5 IEU), SPA beads were added and incubated at 22° C. for a further 30 mins. [^3H]5′AMP was quantified by a standard scintillation counting method.
(§2) Data were expressed as the mean of two technical replicates for each data point, and percent inhibition calculated relative to maximum inhibition observed in the presence of the reference comparator rolipram for PDE-4 assays, and imipramine for serotonin assays.

[2] = target: human recombinant PDE-4B1 (Homo sapiens, UniProt Q07343); assay: PDE4-B1 assay (SPA); format: biochemical; conditions: human recombinant enzyme, 450 nM cAMP
Sequence of human recombinant PDE-4B1 (Q07343 whole entry): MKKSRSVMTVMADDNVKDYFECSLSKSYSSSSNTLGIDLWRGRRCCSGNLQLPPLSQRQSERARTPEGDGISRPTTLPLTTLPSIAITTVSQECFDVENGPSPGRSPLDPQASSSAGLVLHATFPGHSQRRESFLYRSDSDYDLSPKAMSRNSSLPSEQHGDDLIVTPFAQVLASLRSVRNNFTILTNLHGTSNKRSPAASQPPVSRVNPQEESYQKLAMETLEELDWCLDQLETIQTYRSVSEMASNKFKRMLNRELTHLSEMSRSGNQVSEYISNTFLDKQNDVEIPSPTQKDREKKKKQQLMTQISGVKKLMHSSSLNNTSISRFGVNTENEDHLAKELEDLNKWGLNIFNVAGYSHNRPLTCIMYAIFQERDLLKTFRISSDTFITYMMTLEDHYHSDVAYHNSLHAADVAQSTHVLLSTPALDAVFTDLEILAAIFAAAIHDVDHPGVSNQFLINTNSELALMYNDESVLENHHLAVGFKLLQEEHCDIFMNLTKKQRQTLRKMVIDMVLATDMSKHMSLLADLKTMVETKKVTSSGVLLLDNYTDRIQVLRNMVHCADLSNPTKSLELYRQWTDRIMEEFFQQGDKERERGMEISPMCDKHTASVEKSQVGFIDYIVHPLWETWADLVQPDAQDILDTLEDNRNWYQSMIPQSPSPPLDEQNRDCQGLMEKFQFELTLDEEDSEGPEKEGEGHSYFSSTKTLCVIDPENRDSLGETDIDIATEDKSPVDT
Experimental: as §1, §2

C57B6J mice [3] = assay: Sucrose preference test after chronic mild unpredictable stress; format: in vivo; conditions: relative to stress vehicle; for sucrose preference: all time points tested
Experimental: (§3) FIG. 4. Effect of mesembrenol (0.3, 1 and 3 mg/kg, i.p.) administered 30 minutes pre-test on sucrose preference following chronic mild unpredictable stress. Data represents cumulative % preference for sucrose solution over water at the 4, 8, 12 and 24 hour timepoints of the test period. Analysis by repeat measures two-way ANOVA followed by multiple comparisons with Dunnet's correction; *-****P<0.05-0.0001 vs stress vehicle (n=8).
as §3, with “5.” for “4.”, “mesembranol” for “mesembrenol”, “by” for “by repeat measures”, “Sidak's” for “Dunnet's”, “*-*P<0.001-0.0001” for “*-****P<0.05-0.0001”
(§4) C57BI6J mice, will be housed in groups of 4, will be exposed to a variety of mild stressors for a period of four weeks.
(§5) The stressors will include wet bedding, 40° cage tilt, introduction of intruder mouse from different experimental cohort, food deprivation, water deprivation, overnight illumination, and presence of soiled rat bedding as an aversive odour. These stressors are randomly scheduled over each weekly period and repeated for the duration of the experiment. Each stressor is applied for a period of 8-16 hours.
(§6) A cohort of depression-like phenotype in adult male C57B6J mice is produced by employing a four-week mild unpredictable stress protocol.
An additional readout was used to assess antidepressant-like activity of the test compounds using a further measure of anhedonia, the sucrose preference test.
During this test, mice are housed individually and provided, for 24 hours, a free choice between two bottles, one with 1% sucrose solution and another with filtered tap water.
To prevent possible effects of side preference in drinking behaviour, the position of the bottles is swapped after 12 hours. The consumption of water and sucrose solution is estimated simultaneously in control and experimental groups by weighing the bottles. The sucrose intake is calculated as an amount of consumed sucrose in mg per gram body weight. The preference for sucrose is calculated as a percentage of consumed sucrose solution of the total amount of liquid drunk.
A decrease of sucrose preference below 65%, is taken as the criterion for anhedonia. […] In addition, mice with a lower than 65% sucrose preference in other models display features of anhedonia and depression, such as an increased threshold of intracranial self-stimulation and sleep disturbances.
The effect of 2 weeks treatment with imipramine or the acute effect of the test compound or vehicle is determined over this 24 hour period.

[4] = target: T1, human serotonin transporter (Homo sapiens, UniProt P31645); assay: SERT assay, [3H] serotonin uptake in transfected CHO cells; format: cell-based; conditions: CHO cells with human serotonin transporter, 180 min
T1 construct: expressed in transfected cells; host or cells: CHO cells
T1 sequence (P31645 whole entry): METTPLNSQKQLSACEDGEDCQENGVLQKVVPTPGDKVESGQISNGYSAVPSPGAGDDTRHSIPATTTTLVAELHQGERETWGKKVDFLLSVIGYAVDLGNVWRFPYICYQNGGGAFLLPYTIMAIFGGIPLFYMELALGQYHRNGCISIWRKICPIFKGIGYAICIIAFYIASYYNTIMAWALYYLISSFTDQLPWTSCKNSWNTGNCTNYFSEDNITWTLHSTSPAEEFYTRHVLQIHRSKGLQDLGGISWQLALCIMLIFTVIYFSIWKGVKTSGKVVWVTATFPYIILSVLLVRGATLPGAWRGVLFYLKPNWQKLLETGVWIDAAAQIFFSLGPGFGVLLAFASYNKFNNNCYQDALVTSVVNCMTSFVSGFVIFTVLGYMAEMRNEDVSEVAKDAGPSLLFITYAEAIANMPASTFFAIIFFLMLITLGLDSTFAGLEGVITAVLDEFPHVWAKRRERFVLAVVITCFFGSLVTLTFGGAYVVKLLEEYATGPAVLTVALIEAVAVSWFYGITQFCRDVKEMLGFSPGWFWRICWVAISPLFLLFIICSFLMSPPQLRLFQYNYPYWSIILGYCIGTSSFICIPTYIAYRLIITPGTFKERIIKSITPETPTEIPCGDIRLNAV
Experimental: Test compounds (conc range), reference compound or vehicle control were incubated for 180 min at room temperature with CHO cells stably transfected with the human serotonin transporter (5×10^3 cells/well) with 0.15 μM [3H] serotonin in the presence or absence of the test or reference compound in buffer containing (in mM); Tris/HCl (pH 7.4) (5), HEPES/Tris (7.5), NaCl (120), KCl (5.4), CaCl2) (1.2), MgSO4 (1.2), Glucose (5) and ascorbic acid (1). Following incubation, [3H] serotonin uptake was quantified by a standard scintillation counting method.
as §2

C57B6J mice [5] = assay: Female urine sniffing test after chronic mild unpredictable stress; format: in vivo; conditions: 60 minutes pre-test; for time sniffing female estrous urine: relative to vehicle
Experimental: (§7) FIG. 2. Effect of mesembrenol (0.3, 1 and 3 mg/kg, i.p.) administered 60 minutes pre-test on preference to examine the female estrous urine treat following chronic mild unpredictable stress. Data represents total time (sec) engaged in sniffing and investigating the urine soaked cotton tip during a 3 minute trial period. Analysis by one-way ANOVA followed by multiple comparisons with Sidak's correction; **-****P<0.01-0.0001 vs stress vehicle (n=8).
as §7, with “3.” for “2.”, “mesembranol” for “mesembrenol”
as §4, §5, §6
Following two weeks treatment with imipramine, or acute treatment with vehicle or the test compounds (mesembrenol and mesembranol), the reversal of stress induced depression-like behaviour was determined using a measure of anhedonia, female urine sniffing preference.
The test compounds were evaluated at three doses with comparison made to vehicle control, no stress control and the reference control imipramine (n=8). […]
Animals are subsequently transferred to individual cages and exposed for a 3 minute period to a cotton tipped applicator which is dipped in water and attached to the side of the cage. The time each animal spends sniffing the water-impregnated cotton tipped applicator is scored manually by the observer who is blinded to group treatments.
Following a 45 minute interval in the absence of a cotton tipped applicator, an applicator dipped in the urine of a female mice in oestrus is presented and the time spent sniffing the urine-impregnated cotton bud is recorded over a 3 minute period. […]
Testing is conducted under low level red light and behaviour is scored remotely via a video camera placed above the cage.

C57B6J mice [6] = assay: Forced swim test after chronic mild unpredictable stress; format: in vivo; conditions: 3 mg/kg i.p., 30 minutes pre-test, relative to vehicle
Experimental: (§8) FIG. 6. Effect of mesembrenol (0.3, 1 and 3 mg/kg, i.p.) administered 30 minutes pre-test on chronic mild unpredictable stress induced depression phenotype in the forced swim test. Data represents (A) latency to immobility (sec) and (B) total time immobile in the four minute evaluation phase of the procedure. Analysis by one-way ANOVA followed by multiple comparisons with Sidak's and Dunn's correction; **-****P<0.01-0.0001 vs stress vehicle (n=8).
as §8, with “7.” for “6.”, “mesembranol” for “mesembrenol”, “Sidak's” for “Sidak's and Dunn's”, “***-****P<0.001-0.0001” for “**-****P<0.01-0.0001”
as §4, §5, §6
The effect of treatment with the test compounds on chronic mild stress induced immobility in the forced swim test was tested to establish antidepressant-like activity.
Following the 24 hour sucrose preference test, animals are treated again with the test compound, imipramine or vehicle. Animals are individually placed in clear Plexiglas cylinders (25 cm high; 10 cm in diameter) which are filled to a depth of 15 cm with water at 22-25° C.
Testing is conducted under low level red light and behaviour recorded over a 6 minute period using a video camera placed above the cylinder. During the test the animals are placed in the cylinder and allowed to habituate for two minutes before the cumulative duration of time spent immobile is determined over the following 4 minutes. Latency to immobility is recorded.
Movements necessary for the animal to maintain its head above water will not be scored as activity.

zebrafish = conditions: isolated alkaloids, Maphanga et al., 2022; cited from earlier work
in vivo = conditions: male, C57BI/6J, mouse, ip, 10 mg/kg
Experimental: Groups of male C57BI/6J mice received a single administration of test compound (10 mg/kg; i.p.) in methylcellulose (0.5% w/v).
Three mice from each dose group were subject to cardiac puncture under general anaesthesia at 0.25, 0.50, 1.00, 2.00, 4.00, 7.00 and 24.0 hours post-dose and plasma samples generated for application of standard LC-MS/MS bioanalytical methods.
Quantitation of compound concentration was derived from reference calibration data. Pharmacokinetic data were derived from serial plasma concentrations.

C57B6J mice [7] = assay: Elevated plus maze after chronic mild unpredictable stress; format: in vivo
Experimental: (§9) FIG. 8. Effect of mesembrenol (0.3, 1 and 3 mg/kg, i.p.) administered 30 minutes pre-test on chronic mild unpredictable stress induced anxiety phenotype in the elevated plus maze. Data represents (A) latency to open arm entry (sec), (B) number of open arm entries (a.u.) and (C) total time in open arms of the apparatus during the ten minute procedure. Analysis by one-way ANOVA followed by multiple comparisons with Dunn's and Sidak's correction; *-**** P<0.05-0.0001 vs stress vehicle (n=8).
as §9, with “9.” for “8.”, “mesembranol” for “mesembrenol”
as §4, §5, §6
Finally, the effect of the test compounds on chronic unpredictable mild stress anxiogenic phenotype in the elevated plus-maze to determine anxiolytic-like activity.
The apparatus consists of 4 raised flat runways extending from a central platform raised 1 m above the floor of a 2 m wide water maze (prevents escape in the rare event of an animal falling from the apparatus). Two arms have enclosed sides while the others are open.
The mouse version of the apparatus employs maze arms of 30 cm length and 6 cm width, where the enclosed arms have walls 30 cm high. The room is lit with low level indirect lighting.
Animals are allowed to freely explore the apparatus over a 10 minute trial with remote video analysis capturing the pattern of animal movement. The time animals spend exploring the open arms of the maze during the trial is inversely related to the level of stress/anxiety felt by the animal.
Endpoints recorded are the latency (sec) to enter open arms of the maze, total number of open arm entries (a.u.) and total time (sec) spent in the open arms of the plus-maze.

[8] = 3 mg/kg i.p., mesembrenol p<0.001, mesembranol p<0.01
[9] = 3 mg/kg i.p., 30 minutes pre-test, relative to vehicle

Sequence of human recombinant PDE-4D2 (Q08499 303-809 limits assumed): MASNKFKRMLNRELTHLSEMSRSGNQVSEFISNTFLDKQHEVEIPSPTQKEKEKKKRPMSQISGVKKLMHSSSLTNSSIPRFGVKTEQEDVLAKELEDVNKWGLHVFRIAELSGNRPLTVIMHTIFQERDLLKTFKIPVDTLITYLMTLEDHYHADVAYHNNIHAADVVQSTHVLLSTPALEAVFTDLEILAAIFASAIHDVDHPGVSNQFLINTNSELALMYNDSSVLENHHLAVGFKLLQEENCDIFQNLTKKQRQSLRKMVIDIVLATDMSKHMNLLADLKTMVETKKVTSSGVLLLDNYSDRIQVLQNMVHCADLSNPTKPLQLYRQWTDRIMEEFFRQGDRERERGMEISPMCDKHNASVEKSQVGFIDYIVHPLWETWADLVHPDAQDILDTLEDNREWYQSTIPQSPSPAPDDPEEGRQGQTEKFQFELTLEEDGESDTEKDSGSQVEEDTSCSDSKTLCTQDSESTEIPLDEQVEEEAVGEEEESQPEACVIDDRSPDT

Work on CN(C)CCCN1c2ccccc2CCc2ccccc21 [Imipramine, reference compound] yielded an IC50 ([1]; human recombinant enzyme, 450 nM cAMP, read-out: IC50 PDE-4D2) of 144 to 300 nM and an IC50 [2] of 1600 nM.

In the case of COc1ccc(C23CCC(O)CC2N(C)CC3)cc1OC (centres unmarked) [Mesembranol, 3a-(3,4-dimethoxyphenyl)-1-methyl-3,4,5,6,7,7a-hexahydro-2H-indol-6-ol], the sucrose preference (C57B6J mice [3]; 3 mg/kg i.p.) is reported as “statistically significant increase”, the IC50 [4] is reported as 143 nM and the “time sniffing female estrous urine” value (C57B6J mice [5]; [8]) is reported as “significant increase”. For the same molecule, the immobility time (C57B6J mice [6]) was “significant reduction”, the latency to immobility (C57B6J mice [6]) was “no changes” and the “effect in zebrafish model of anxiety” value (zebrafish) was “anxiolytic-like effect”. It also gave an IC50 [1] of 9840 nM, an IC50 [2] of 8410 nM and an AUC(0-inf) (in vivo) of 649 ng·h/mL. For the same molecule, the Cmax (in vivo) was 834 ng/mL, the Tmax (in vivo) was 18 min and the half-life (in vivo) was 21.8 min. The “number of open arm entries” value (C57B6J mice [7]; [9]) was “significant increase” and the “time spent in the open arms” value (C57B6J mice [7]; [9]) was “significant increase”.

In the case of COc1ccc(C23C=CC(O)CC2N(C)CC3)cc1OC (centres unmarked) [Mesembrenol], the sucrose preference (C57B6J mice [3]; 1 mg/kg i.p.) is reported as “significant increase”, the sucrose preference (C57B6J mice [3]; 3 mg/kg i.p.) is reported as “significant increase” and the “sucrose preference, dose response” value (C57B6J mice [3]; 0.3, 1 and 3 mg/kg i.p., 30 minutes pre-test, all time points (4, 8, 12, 24 hour)) is reported as “dose dependent increase”. For the same molecule, the IC50 [4] was 462 nM, the “time sniffing female estrous urine” value (C57B6J mice [5]; 1 mg/kg i.p., mesembrenol p<0.01) was “significant increase” and the “time sniffing female estrous urine” value (C57B6J mice [5]; [8]) was “significant increase”. For the same molecule, the “time sniffing female estrous urine, dose response” value (C57B6J mice [5]; 0.3, 1 and 3 mg/kg i.p., relative to stress vehicle) was “dose dependent increase”, the immobility time (C57B6J mice [6]) was “significant reduction” and the latency to immobility (C57B6J mice [6]) was “significant increase”. The “effect in zebrafish model of anxiety” value (zebrafish) was “anxiolytic-like effect”, the IC50 [1] was 3910 nM and the IC50 [2] was 27600 nM. It also gave an AUC(0-inf) (in vivo) of 352 ng·h/mL, a Cmax (in vivo) of 503 ng/mL and a Tmax (in vivo) of 16 min. For the same molecule, the half-life (in vivo) was 26.3 min, the “time spent in the open arms” value (C57B6J mice [7]; 1 mg/kg i.p., 30 minutes pre-test, relative to vehicle) was “significant increase” and the “time spent in the open arms” value (C57B6J mice [7]; [9]) was “significant increase”. The “number of open arm entries” value (C57B6J mice [7]; 0.3, 1 and 3 mg/kg i.p., versus the vehicle group) was “no change”.

Molecule COc1ccc(C2CNC(=O)C2)cc1OC1CCCC1 (centres unmarked) [Rolipram, reference compound] has an IC50 [4] of 23.2 nM.

For COc1ccc([C@@]23C=CC(=O)C[C@@H]2N(C)CC3)cc1OC [mesembrenone], the “effect in zebrafish model of anxiety” value (zebrafish) is listed as “anxiolytic-like effect”.

In the case of COc1ccc([C@@]23CCC(=O)C[C@@H]2N(C)CC3)cc1OC [mesembrine], the “effect in zebrafish model of anxiety” value (zebrafish) is given as “anxiolytic-like effect”.
